Assay results reported in the NIST ThermoML archive (doi:10.1021/je800998u).
Numbers after ± are expanded uncertainties.

Assay: molar heat capacity at constant pressure
Conditions: 101.33 kPa, Crystal 2, Small (less than 1 g) adiabatic calorimetry

CC(C)COCC(C)C [diisobutyl ether]
Conditions | molar heat capacity at constant pressure [J/K/mol]
8.82 K | 1.718 ± 0.05
9.09 K | 1.873 ± 0.053
9.35 K | 2.044 ± 0.055
9.61 K | 2.275 ± 0.059
9.86 K | 2.429 ± 0.061
10 K | 2.519 ± 0.064
10.18 K | 2.65 ± 0.064
10.58 K | 2.937 ± 0.068
10.96 K | 3.313 ± 0.074
11.34 K | 3.685 ± 0.079
11.75 K | 4.078 ± 0.085
12.13 K | 4.434 ± 0.089
12.5 K | 4.803 ± 0.094
12.88 K | 5.199 ± 0.099
13.25 K | 5.584 ± 0.1
13.61 K | 6.04 ± 0.11
13.98 K | 6.505 ± 0.12
14.34 K | 6.941 ± 0.12
14.71 K | 7.42 ± 0.13
15 K | 7.709 ± 0.13
15.07 K | 7.816 ± 0.13
15.44 K | 8.198 ± 0.14
15.8 K | 8.608 ± 0.14
16.15 K | 9.109 ± 0.15
16.51 K | 9.706 ± 0.15
16.86 K | 10.12 ± 0.16
17.21 K | 10.68 ± 0.16
17.57 K | 11.14 ± 0.17
17.92 K | 11.79 ± 0.17
18.28 K | 12.13 ± 0.18
18.63 K | 12.7 ± 0.18
18.98 K | 13.24 ± 0.19
19.33 K | 13.71 ± 0.19
19.68 K | 14.26 ± 0.2
20 K | 14.73 ± 0.2
20.03 K | 14.7 ± 0.2
20.68 K | 15.81 ± 0.21
21.44 K | 17.01 ± 0.22
22.21 K | 18.14 ± 0.22
22.97 K | 19.36 ± 0.23
23.73 K | 20.47 ± 0.24
24.49 K | 21.77 ± 0.24
25 K | 22.61 ± 0.25
25.25 K | 22.85 ± 0.25
26 K | 24.23 ± 0.26
26.76 K | 25.53 ± 0.26
27.53 K | 26.72 ± 0.26
28.29 K | 27.81 ± 0.26
29.04 K | 29.05 ± 0.27
29.8 K | 30 ± 0.26
30 K | 30.39 ± 0.25
30.56 K | 31.03 ± 0.26
31.31 K | 32.45 ± 0.26
32.07 K | 33.45 ± 0.27
32.84 K | 34.56 ± 0.27
33.59 K | 35.68 ± 0.28
34.35 K | 36.74 ± 0.28
35 K | 37.65 ± 0.29
35.1 K | 37.87 ± 0.29
35.86 K | 38.82 ± 0.29
36.61 K | 39.8 ± 0.3
37.36 K | 40.72 ± 0.3
38.11 K | 42.01 ± 0.31
38.86 K | 43.03 ± 0.32
39.62 K | 44.08 ± 0.32
40 K | 44.52 ± 0.32
40.37 K | 45.1 ± 0.33
41.12 K | 46.17 ± 0.33
41.87 K | 47.05 ± 0.34
42.62 K | 47.91 ± 0.34
43.37 K | 48.99 ± 0.35
44.12 K | 49.85 ± 0.35
44.88 K | 50.69 ± 0.35
45 K | 51.04 ± 0.36
45.63 K | 51.79 ± 0.36
46.38 K | 52.94 ± 0.37
47.13 K | 53.72 ± 0.37
47.88 K | 54.52 ± 0.37
48.63 K | 55.63 ± 0.38
49.38 K | 56.47 ± 0.38
50 K | 57.22 ± 0.39
50.12 K | 57.39 ± 0.39
50.87 K | 58.27 ± 0.39
51.62 K | 59.17 ± 0.4
52.36 K | 60.07 ± 0.4
53.11 K | 61.06 ± 0.41
53.85 K | 62.18 ± 0.41
54.6 K | 63.09 ± 0.42
55 K | 63.54 ± 0.42
55.34 K | 63.95 ± 0.42
56.09 K | 64.95 ± 0.43
56.83 K | 66.04 ± 0.43
57.57 K | 67.47 ± 0.44
59.06 K | 68.36 ± 0.44
59.81 K | 69.16 ± 0.45
60 K | 69.69 ± 0.45
60.55 K | 69.92 ± 0.45
61.29 K | 71.03 ± 0.46
62.03 K | 72.13 ± 0.46
62.77 K | 72.85 ± 0.47
63.51 K | 73.59 ± 0.47
64.25 K | 74.59 ± 0.47
64.99 K | 75.44 ± 0.48
65 K | 75.34 ± 0.48
65.73 K | 76.13 ± 0.48
66.47 K | 76.73 ± 0.48
67.21 K | 77.8 ± 0.49
67.95 K | 78.53 ± 0.49
68.69 K | 79.4 ± 0.5
69.43 K | 79.64 ± 0.5
70 K | 80.28 ± 0.5
70.16 K | 80.5 ± 0.5
71.06 K | 80.99 ± 0.51
72.11 K | 81.81 ± 0.51
73.16 K | 83.2 ± 0.52
74.21 K | 84.22 ± 0.52
75 K | 84.76 ± 0.52
75.26 K | 84.92 ± 0.53
76.31 K | 85.85 ± 0.53
77.36 K | 86.85 ± 0.54
77.99 K | 88.21 ± 0.54
78.41 K | 87.75 ± 0.54
79.13 K | 89.1 ± 0.55
79.45 K | 89.04 ± 0.55
80 K | 89.65 ± 0.55
80.18 K | 90.02 ± 0.55
80.5 K | 89.99 ± 0.55
81.22 K | 91.36 ± 0.56
81.55 K | 90.95 ± 0.56
82.26 K | 92.28 ± 0.56
82.59 K | 92.15 ± 0.56
83.3 K | 92.88 ± 0.56
83.63 K | 93.23 ± 0.57
84.34 K | 93.83 ± 0.57
84.68 K | 93.86 ± 0.57
85 K | 94.92 ± 0.58
85.37 K | 94.92 ± 0.58
85.72 K | 96.14 ± 0.58
86.41 K | 96.9 ± 0.58
87.44 K | 97.86 ± 0.59
88.48 K | 98.97 ± 0.59
89.51 K | 100 ± 0.6
90 K | 100.3 ± 0.6
90.55 K | 101.18 ± 0.61
91.58 K | 101.87 ± 0.61
92.61 K | 102.82 ± 0.61
93.65 K | 104.36 ± 0.62
94.68 K | 104.93 ± 0.62
95 K | 105.3 ± 0.6
95.71 K | 105.7 ± 0.62
96.75 K | 106.52 ± 0.63
97.78 K | 107.57 ± 0.63
98.81 K | 108.62 ± 0.63
99.84 K | 109.08 ± 0.64
100 K | 109.7 ± 0.6
100.86 K | 110.59 ± 0.64
101.89 K | 111.96 ± 0.65
102.92 K | 112.24 ± 0.65
103.95 K | 113.24 ± 0.65
104.98 K | 114.44 ± 0.66
106.01 K | 115.08 ± 0.66
107.04 K | 116.13 ± 0.66
108.06 K | 116.43 ± 0.67
109.09 K | 117.54 ± 0.67
110 K | 118.6 ± 0.7
110.11 K | 118.56 ± 0.67
111.14 K | 119.31 ± 0.68
112.16 K | 120.35 ± 0.68
113.18 K | 121.34 ± 0.69
114.21 K | 122.79 ± 0.69
115.23 K | 123.92 ± 0.7
116.25 K | 124.47 ± 0.7
117.27 K | 125.86 ± 0.7
118.29 K | 126.81 ± 0.71
119.32 K | 127.51 ± 0.71
120 K | 128 ± 0.7
120.34 K | 128.32 ± 0.71
121.36 K | 129.04 ± 0.72
122.38 K | 130.15 ± 0.72
123.4 K | 131.15 ± 0.72
124.42 K | 131.86 ± 0.73
125.44 K | 132.59 ± 0.73
126.46 K | 133.8 ± 0.74
127.47 K | 134.67 ± 0.74
128.49 K | 135.82 ± 0.74
129.51 K | 137.05 ± 0.75
130 K | 137.1 ± 0.8
130.53 K | 137.63 ± 0.75
131.54 K | 138.57 ± 0.75
132.56 K | 139.45 ± 0.76
133.57 K | 140.23 ± 0.76
134.59 K | 141.56 ± 0.77
135.6 K | 142.61 ± 0.77
136.62 K | 143.17 ± 0.77
137.63 K | 144.11 ± 0.78
138.64 K | 145.82 ± 0.78
139.66 K | 146.49 ± 0.79
140 K | 147 ± 0.8
